target: T1, RORC2 ligand binding domain (6-His-RORC2 LBD) (Homo sapiens, UniProt P51449); experiment: Co-activator recruitment by TR-FRET (RORC2 FRET); type: biochemical; details: 6.3 nM RORC2 LBD, 200 nM SRC1-2 coactivator peptide, 3 hours room temperature
T1 construct: made in house; host or cells: E. coli
T1 sequence (P51449 269-508 limits assumed): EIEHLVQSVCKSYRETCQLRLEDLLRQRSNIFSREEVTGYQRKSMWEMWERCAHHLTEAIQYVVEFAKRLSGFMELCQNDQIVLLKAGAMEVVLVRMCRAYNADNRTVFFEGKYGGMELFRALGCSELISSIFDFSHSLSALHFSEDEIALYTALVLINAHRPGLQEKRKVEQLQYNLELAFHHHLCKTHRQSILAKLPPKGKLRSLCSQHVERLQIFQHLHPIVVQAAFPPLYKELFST
Source text: The activity of compound of the invention can be determined by a co-activator recruitment by TR-FRET (time-resolved fluorescence resonance energy transfer) assay. […] Due to the long lasting fluorescence emission of Europium, the non-specific, short-lived fluorescence is time-resolved (TR) from the fluorescence of interest. Inhibitors of the interaction of receptor and coactivator peptide are detected by a decrease in TR-FRET signal.
Specifically, in one embodiment the aforementioned assay was performed as outlined below. The assay was carried out in black polystyrene, 384-well plates in a total assay volume of 50.5 μL. The assay buffer contained 50 mM TRIS-HCL pH 7.5, 1 mM NaCl, 2 mM MgCl2, 0.5 mg/mL bovine serum albumin, and 5 mM dithiothreitol.

| IC50 [nM] | Compound |
| --- | --- |
| 40.6 | Cn1cc(C2CCN(C(=O)C3CCOCC3)CC2)c2cc(NC(=O)c3cc(C#N)ccn3)ccc21 [Example 19, 4-cyano-N-{1-methyl-3-[1-(tetrahydro-2H-pyran-4-ylcarbonyl)piperidin-4-yl]-1H-indol-5-yl}pyridine-2-carboxamide] |
| 246 | Cn1cc(C2CCN(C(=O)c3ccncn3)CC2)c2cc(NC(=O)c3cc(C#N)ccn3)ccc21 [Example 20, 4-cyano-N-{1-methyl-3-[1-(pyrimidin-4-ylcarbonyl)piperidin-4-yl]-1H-indol-5-yl}pyridine-2-carboxamide] |
| 1440 | Cn1cc(C2CCN(C(=O)c3cccc(O)n3)CC2)c2cc(NC(=O)c3cc(C#N)ccn3)ccc21 [Example 21, 4-cyano-N-(3-{1-[(6-hydroxypyridin-2-yl)carbonyl]piperidin-4-yl}-1-methyl-1H-indol-5-yl)pyridine-2-carboxamide] |
| 384 | Cn1cc(C2CCN(C(=O)C(C)(C)CO)CC2)c2cc(NC(=O)c3cc(C#N)ccn3)ccc21 [Example 22, 4-cyano-N-{3-[1-(3-hydroxy-2,2-dimethylpropanoyl)piperidin-4-yl]-1-methyl-1H-indol-5-yl}pyridine-2-carboxamide] |
| 334 | Cn1cc(C2CCN(C(=O)C(O)C(F)(F)F)CC2)c2cc(NC(=O)c3cc(C#N)ccn3)ccc21 (centres unmarked) [Example 23, 4-cyano-N-{1-methyl-3-[1-(3,3,3-trifluoro-2-hydroxypropanoyl)piperidin-4-yl]-1H-indol-5-yl}pyridine-2-carboxamide] |
| 246 | Cn1cc(C2CCN(C(=O)c3ncccn3)CC2)c2cc(NC(=O)c3cc(C#N)ccn3)ccc21 [Example 24, 4-cyano-N-{1-methyl-3-[1-(pyrimidin-2-ylcarbonyl)piperidin-4-yl]-1H-indol-5-yl}pyridine-2-carboxamide] |
| 31.6 | Cn1cc(C2CCN(C(=O)C3CCCO3)CC2)c2cc(NC(=O)c3cc(C#N)ccn3)ccc21 (centres unmarked) [Example 25, 4-cyano-N-{1-methyl-3-[1-(tetrahydrofuran-2-ylcarbonyl)piperidin-4-yl]-1H-indol-5-yl}pyridine-2-carboxamide] |
| 87 | Cn1cc(C2CCN(C(=O)c3cnccn3)CC2)c2cc(NC(=O)c3cc(C#N)ccn3)ccc21 [Example 26, 4-cyano-N-{1-methyl-3-[1-(pyrazin-2-ylcarbonyl)piperidin-4-yl]-1H-indol-5-yl}pyridine-2-carboxamide] |
| 1420 | Cn1cc(C2CCN(C(=O)[C@H]3CC[C@H](O)CC3)CC2)c2cc(NC(=O)c3cc(C#N)ccn3)ccc21 [Example 27, 4-cyano-N-(3-{1-[(trans-4-hydroxycyclohexyl)carbonyl]piperidin-4-yl}-1-methyl-1H-indol-5-yl)pyridine-2-carboxamide] |
| 88.1 | CC(C)C(O)C(=O)N1CCC(c2cn(C)c3ccc(NC(=O)c4cc(C#N)ccn4)cc23)CC1 (centres unmarked) [Example 28, 4-cyano-N-{3-[1-(2-hydroxy-3-methylbutanoyl)piperidin-4-yl]-1-methyl-1H-indol-5-yl}pyridine-2-carboxamide] |
| 56.2 | Cn1cc(C2CCN(C(=O)[C@H]3CC[C@@H](O)CC3)CC2)c2cc(NC(=O)c3cc(C#N)ccn3)ccc21 [Example 29, 4-cyano-N-(3-{1-[(cis-4-hydroxycyclohexyl)carbonyl]piperidin-4-yl}-1-methyl-1H-indol-5-yl)pyridine-2-carboxamide] |
| 14.3 | Cn1cc(C2CCN(C(=O)CCC(F)(F)F)CC2)c2cc(NC(=O)c3cc(C#N)ccn3)ccc21 [Example 30, 4-cyano-N-{1-methyl-3-[1-(4,4,4-trifluorobutanoyl)piperidin-4-yl]-1H-indol-5-yl}pyridine-2-carboxamide] |
| 121 | Cn1cc(C2CCN(C(=O)C34CC(C3)C4)CC2)c2cc(NC(=O)c3cc(C#N)ccn3)ccc21 [Example 31, N-{3[1-(bicyclo[1.1.1]pent-1-ylcarbonyl)piperidin-4-yl]-1-methyl-1H-indol-5-yl}-4-cyanopyridine-2-carboxamide] |
| 35.5 | Cn1cc(C2CCN(C(=O)C3CC3(F)F)CC2)c2cc(NC(=O)c3cc(C#N)ccn3)ccc21 (centres unmarked) [Example 32, 4-cyano-N-(3-{1-[(2,2-difluorocyclopropyl)carbonyl]piperidin-4-yl}-1-methyl-1H-indol-5-yl)pyridine-2-carboxamide] |
| 7.6 | Cn1cc(C2CCN(C(=O)CC3CC3)CC2)c2cc(NC(=O)c3cc(C#N)ccn3)ccc21 [Example 33, 4-cyano-N-{3-[1-(cyclopropylacetyl)piperidin-4-yl]-1-methyl-1H-indol-5-yl}pyridine-2-carboxamide] |
| 100 | COCC(=O)N1CCC(c2cn(C)c3ccc(NC(=O)c4cc(C#N)ccn4)cc23)CC1 [Example 34, 4-cyano-N-{3-[1-(methoxyacetyl)piperidin-4-yl]-1-methyl-1H-indol-5-yl}pyridine-2-carboxamide] |
| 21.6 | Cn1cc(C2CCN(C(=O)CC(F)(F)F)CC2)c2cc(NC(=O)c3cc(C#N)ccn3)ccc21 [Example 35, 4-cyano-N-{1-methyl-3-[1-(3,3,3-trifluoropropanoyl)piperidin-4-yl]-1H-indol-5-yl}pyridine-2-carboxamide] |
| 34.1 | N#Cc1ccnc(C(=O)Nc2ccc3[nH]cc(C4CCN(C(=O)C5CCCC5)CC4)c3c2)c1 [Example 37, 4-cyano-N-(3-(1-(cyclopentanecarbonyl)piperidin-4-yl)-1H-indol-5-yl)picolinamide] |
| 910 | O=C(Nc1ccc2[nH]cc(C3CCN(C(=O)C4CCCC4)CC3)c2c1)c1ccccc1F [Example 38, N-{3-[1-(cyclopentylcarbonyl)piperidin-4-yl]-1H-indol-5-yl}-2-fluorobenzamide] |
| 380 | COc1ccc(C#N)cc1C(=O)Nc1ccc2[nH]cc(C3CCN(C(=O)C4CCCC4)CC3)c2c1 [Example 40, 5-cyano-N-{3-[1-(cyclopentylcarbonyl)piperidin-4-yl]-1H-indol-5-yl}-2-methoxybenzamide] |
| 327 | N#Cc1ccc(F)c(C(=O)Nc2ccc3[nH]cc(C4CCN(C(=O)C5CCCC5)CC4)c3c2)c1 [Example 41, 5-cyano-N-{3-[1-(cyclopentylcarbonyl)piperidin-4-yl]-1H-indol-5-yl}-2-fluorobenzamide] |
| 953 | COc1ccc(C(=O)Nc2ccc3[nH]cc(C4CCN(C(=O)C5CCCC5)CC4)c3c2)nc1 [Example 42, N-{3-[1-(cyclopentylcarbonyl)piperidin-4-yl]-1H-indol-5-yl}-5-methoxypyridine-2-carboxamide] |
| 1030 | O=C(Nc1ccc2[nH]cc(C3CCN(C(=O)C4CCCC4)CC3)c2c1)c1ccc2scnc2c1 [Example 43, N-{3-[1-(cyclopentylcarbonyl)piperidin-4-yl]-1H-indol-5-yl}-1,3-benzothiazole-5-carboxamide] |
| 624 | O=C(Nc1ccc2[nH]cc(C3CCN(C(=O)C4CCCC4)CC3)c2c1)c1ccccc1Cl [Example 44, 2-chloro-N-{3-[1-(cyclopentylcarbonyl)piperidin-4-yl]-1H-indol-5-yl}benzamide] |
| 3460 | O=C(Nc1ccc2[nH]cc(C3CCN(C(=O)C4CCCC4)CC3)c2c1)c1ccc(CO)cc1 [Example 45, N-{3-[1-(cyclopentylcarbonyl)piperidin-4-yl]-1H-indol-5-yl}-4-(hydroxymethyl)benzamide] |
| 1450 | O=C(Nc1ccc2[nH]cc(C3CCN(C(=O)C4CCCC4)CC3)c2c1)c1cccc(O)c1 [Example 46, N-{3-[1-(cyclopentylcarbonyl)piperidin-4-yl]-1H-indol-5-yl}-3-hydroxybenzamide] |
